According to PMC9118553, “In Vivo Bioconcentration of 10 Anionic Surfactants in Rainbow Trout Explained by In Vitro Data on Partitioning and S9 Clearance” (Environmental Science & Technology, 2022):

What was measured:
[1] = set-up: method as in REACH dossier; details: method as noted in the cell (shake flask, solubility ratio, HPLC, BCFBAF, pH); ref REACH dossier; cited from earlier work
[2] = ref REACH dossier; cited from earlier work
carp = test system: carp; set-up: method as in REACH dossier; details: carp 28d pH7; ref REACH dossier; cited from earlier work
[3] = RT-S9 substrate depletion assay, individual compounds, with IVIVE; details: tested individually
Protocol: The in vitro intrinsic clearance by the S9 fraction of rainbow trout liver was measured for the same 11 anionic surfactants used in the BCF experiment as separate compounds. […] An established RT-S9 substrate depletion assay was employed,[25]−[27] predating the currently available OECD guideline 319B.[28] A single batch of the characterized liver homogenate material was prepared at the US EPA lab in Duluth and shipped on dry ice to the testing facilities at the University of Amsterdam. The test was conducted using the same method applied for a series of cationic surfactants in Droge et al.[29] and is summarized together with the in vitro–in vivo extrapolation in Text S4.
(§1) Text S4: Trout liver S9 parent depletion assay details and IVIVE
(§2) Liver tissue was separately pooled from the same five rainbow trout (three males/two females, ~300 g, liver weight ~3 g) used also for the RT-S9 study on a series of cationic surfactants (Droge et al., 2021b). The liver sample was homogenized in an appropriate buffer and then centrifuged to yield a 13,000 x g supernatant (the ‘S9 fraction’, lacking only mitochondrial fractions). No further refinement towards microsomal fractions was made to remove cytosolic and lysosomal components.
(§3) Upon arrival at the University of Amsterdam the liver
(§4) S9 material was stored in a -80 °C freezer until use.
(§5) Individual chemicals were first dissolved in methanol and then further diluted to 20% methanol in 100 mM phosphate buffer to make a ~20 µM stock solution, which was then spiked as 10 µL in 190 µL of active S9 mixture. The active S9 mixture consisted of 100 mM potassium phosphate-buffered saline (PPBS) adjusted to pH 7.8, 2 mM β-NADPH, 2 mM UDPGA, 0.1 mM PAPS, 5 mM GSH, 10 μg/mL alamethicin (in methanol carrier; 0.1% v/v final concentration), and 2 mg/mL S9 protein. The substrate depletion assays were performed using the multiple vial method described in OECD TG 319B, employing two or three separately spiked series.
(§6) Reactions were performed at 11 °C in a temperature-controlled water bath (B. Braun Frigomix-R) that was placed on a 2 cm travel path shaker (Gerhardt LS 10) set at 45 rpm. As a positive […]
(§7) alkylsulfonates, no additional assays with inactivated RT-S9 were performed.
(§8) Reactions were quenched with 600 µL ice-cold acetonitrile. After 10 s vortexing and 5 min centrifugation (Hermle Z300, 2500 rpm), 100 µL clear supernatant was transferred into 300 µL glass inserts placed in new autosampler vials, and mixed with 100 µL pure water. Concentrations were measured using a Prominence UFLC-XR system (Shimadzu) coupled to a tandem mass spectrometer (QTRAP 4000, Applied Biosystems) with a Turbo Ion spray source operated at 400 ◦C. For chromatographic separations, a 100 x 2.1mm x 2.7 µm Supelco Ascentis Express column was used (40 °C), with eluent A: pure water with 2 mM ammonium acetate, and eluent […]
(§9) prepared in 50% acetonitrile/water, calibration curves used covered at least four points in a log-linear range. The lowest external standard to fit the log-linear calibration curve served as limit of quantification, requiring a peak of at least 10x the average noise.
(§10) Each vial was treated as an independent vial with recorded exposure time. Log-transformed concentration data of the parent compound were plotted against exposure time (min) and analysed using Graphpad PRISM 8. […]
(§11) the slope (min-1) was multiplied by -2.3 and by 60 (min h-1) to obtain a first order depletion rate […]
(§12) Extrapolation of kdep to whole body rate biotransformation rate constant (kB-S9) The basic approach to extrapolate first order depletion rate constants (k dep) to whole body

[4] = RT-S9 substrate depletion assay, mixture of 9 anionic surfactants (AnionMixture); details: tested in a mixture
Protocol: An established RT-S9 substrate depletion assay was employed,[25]−[27] predating the currently available OECD guideline 319B.[28] A single batch of the characterized liver homogenate material was prepared at the US EPA lab in Duluth and shipped on dry ice to the testing facilities at the University of Amsterdam. The test was conducted using the same method applied for a series of cationic surfactants in Droge et al.[29] and is summarized together with the in vitro–in vivo extrapolation in Text S4.
as §1, §2, §3, §4, §5, §6, §7, §8, §9, §10, §11, §12

[5] = marked * = measured; used for IVIVE; same values as Table 3; cited from earlier work
rainbow trout = details: rainbow trout, similar water hardness; cited from earlier work
Danio rerio = details: in vivo, pH 7.6; cited from earlier work
several species = test system: several species; set-up: method as in doi:10.1186/s12302-020-00435-1; details: LSC of radiolabeled compound, upper boundary; cited from earlier work
[6] = set-up: method as in REACH dossier; details: experimental, several studies; ref REACH dossier; cited from earlier work
Cyprinus carpio = details: in vivo; cited from earlier work

SMILES | LogKow [1] | Degradation information ~28d-sludge test (% degradable) [2] | further results
CCCCCCCCCCCCCCCCCCOP(=O)([O-])[O-].[K+].[K+] [1-Octadecanol, phosphate, potassium salt] | 8.556 | 0% | 
CC(CC(=O)O)CC(C)(C)C (stereo not shown) [3,5,5-trimethylhexanoic acid] |  | 96% | BCF (carp): 1 to 7 L/kg
CCCCCCCC(C=O)NCCCCCC(=O)O (stereo not shown) [6-[(1-formyloctyl)amino]hexanoic acid] | 2.47 | 98% | 
CCCCC(CC)COP(=O)(O)OCC(CC)CCCC (stereo not shown) [BEHP, bis(2-ethylhexyl)phosphate] |  |  | CLint,S9 [3]: n.s.; Slope of depletion curve (log concentration vs time) ([3]; 2 mg/mL S9 protein, 11 °C): -0.0001 min-1; Slope of depletion curve (log concentration vs time) [4]: -0.0003 min-1; log DMW, membrane-water distribution ratio [5]: 3.81
CCCCCCCCCC(C)c1ccc(S(=O)(=O)O)cc1 (stereo not shown) [C11-2-LAS, reference compound] |  |  | BCF (rainbow trout): 6 L kg^–1
CCCCCCCCCCCC(=O)O [C11CO2] |  |  | BCF (Danio rerio): 255 L/kg; Exp BCF (Danio rerio): 255
CCCCCCCCCCCCOS(=O)(=O)[O-].[Na+] [C12SO4, sodium dodecylsulfate] |  | 94-97% | BCF (several species): 1–7.15 L kg^–1; BCF [6]: 1-10
CCCCCCCCCCCCCCOS(=O)(=O)O [C14SO4] |  |  | BCF (Cyprinus carpio): 11 L kg^–1
CCCCC(CC)COP(=O)(O)O (stereo not shown) [[(2-ethylhexyl)oxy]phosphonic acid] | < 3 | 26-78% | 
CCCCCCC(O)CCCCCCCCCCC(=O)[O-].CCCCCCCCCCCCCCCCCC(=O)[O-].[Li+].[Li+] (stereo not shown) [dilithium(1+) ion 12-hydroxyoctadecanoate octadecanoate] |  | 74-97% | 
CCCCCCC(O)CCCCCCCCCCC(=O)[O-].[Li+] (stereo not shown) [lithium(1+) ion 12-hydroxyoctadecanoate] |  | 74-97% | 
CCCCCCCCC(=O)O [nonanoic acid] | 3.42 | 68 -75% | 
CCCCCCCCP(=O)(O)O [octylphosphonic acid] | 2.7 | 65-88% | 
CCCCC(CC)COC(=O)CC(C(=O)OCC(CC)CCCC)S(=O)(=O)[O-].[K+] (stereo not shown) [potassium 1,4-bis[(2-ethylhexyl)oxy]-1,4-dioxobutane-2-sulfonate] | 2.0 | 83.5-100% | 
CCCCCCCCCCCCOP(=O)([O-])O.[K+] [potassium dodecyl hydrogen phosphate] | 2.74 | 4-63% | 
CC(C)CP(=S)([S-])CC(C)C.[Na+] [sodium diisobutylphosphinodithioate] | -1.64 | 78,8% | 
